Test results from US11964000B2, “Cancer treatment methods using nanofiber stabilized growth factors” (Northwestern University, priority 2020, dated 2024).
Entries after “also recorded” stand apart in the source; their conditions may differ. Blank lines part the entries; values can stand above or below the molecule they belong to. Residues, ends and D or L forms follow the SMILES beside them. Groups on a side chain read outwards from the residue. *: point of attachment. X1 = CC(=O)N[C@H]1[C@H](OCCn2cc(CCC(=O)*)nn2)O[C@H](COS(=O)(=O)O)[C@@H](OS(=O)(=O)O)[C@@H]1OS(=O)(=O)O; Palmitoyl = CCCCCCCCCCCCCCCC(=O)*; AEEA = NCCOCCOCC(=O)O

Legend:
[1] = test system: KNS42 cells; test: KNS42 cell viability in response to vincristine and vinblastine after BMP4 treatment; format: cell-based, human
Text: (§1) FIG. 2. BMP4 increases chemotherapeutic efficacy via reducing SETD1A and H3K4me3. (FIG. 2A) H3K4me3 levels in pediatric high-grade glioma cells in response to BMP4 (1 to 100/ng/ml). (FIG. 2B) SETD1A, SMAD1/5/8, MDR1, H3K4me3 levels in pediatric high-grade glioma-KNS42 cells and LCH-13-pGBM patient derived primary cultured cells. (FIG. 2C) KNS42 cell viability in response to vincristine (VCR) and vinblastine (VBL) with/without Dorsomorphine, a phosphoSMAD1/5/8 inhibitor. (FIG. 2D, FIG. 2E) KNS42 cell viability in response to VCR and VBL following down- or up-regulation of SETD1A via siSETD1A (D) or pET28-SETD1A and pET28-SETD1A with PSC833, a specific MDR1 inhibitor (E), respectively. (FIG. 2F) Protein immunoprecipitation with SMAD1/5/8, pSMAD1/5/8 antibodies from total protein extracts from BMP4 treated KNS42 cells using Biotin-streptavidin kit (Thermo Fisher) and detected with SETD1A, SMAD1/5/8, pSMAD1/5/8 using western blots.
(§2) This decreasing effect is reversed by Dorsomorphine, an inhibitor of pSMAD1/5/8 (FIG. 2C). In parallel, it was also tested and verified that SETD1A is associated with chemosensitivity in vitro in HGG cells (FIGS. 2D and E). […] Thus, it was hypothesized that BMP4 is altering gene expression through its effect on histone PTM. These findings prompted investigation of 1) in addition to H3K4me3, determining other histone PTMs that are affected subsequent to BMP4 treatment of tumor cells; and 2) other gene expression alterations that contribute to the heightened tumor cell response to cytotoxic therapy following BMP4 treatment.

[2] = test system: HGG cells; test: HGG cell chemosensitivity (carboplatin) with PA-bound BMP4; format: cell-based, human; settings: PA 25 μM with BMP4 5 ng/ml; response to carboplatin treatment
Text: (§3) FIG. 5. Self-assembled peptide amphiphile nanostructures extend and enhance BMP4 effects in pediatric high grade glioma cells in vitro. (FIG. 5A) Western blots show PAs enhance BMP4 function by activating its downstream target pSMAD1/5/8 in pediatric glioma KNS42 (FIG. 5B) and CHLA200 cells. (FIG. 5C) Increased therapeutic efficacy in response to carboplatin treatment.
(§4) To investigate biological effects of PA-BMP4, HGG responses to different types of PAs, both with and without bound BMP4, were analyzed. HGG cells were treated with BMP4 (5 ng/ml), GlncPA (25 μM) and GlncPA (25 μM)-BMP4 (5 ng/ml), E2-PA (25 μM) and E2-PA (25 μM)-BMP4 (5 ng/ml) for 24h and 72h.

[3] = biological target: T1, BMP4 (Homo sapiens, UniProt P12644); test: ELISA of BMP4 half-life with peptide amphiphile nanostructures; settings: BMP4 with PA nanostructures
T1 sequence (P12644 293-408): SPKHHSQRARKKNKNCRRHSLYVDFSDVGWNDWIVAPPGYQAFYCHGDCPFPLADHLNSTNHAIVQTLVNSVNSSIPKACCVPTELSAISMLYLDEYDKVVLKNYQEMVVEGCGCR
Method: FIG. 3. […] (FIG. 3A) Molecular structure of GlncPA molecule (i.e. the glycosylated peptide amphiphile or “GPA”) and schematic of the self-assembled GlncPA nanofiber. The grey molecular region guides the self-assembly process into nanofibers, the blue molecular region contains the tri-sulfated monosaccharide responsible for protein binding actions. (FIG. 3B) SEM of GlncPA nanofiber bundles after exposure to blood proteins for 5 minutes. […] (Abbreviation: E2PA=filler PA=E2-PA, GlncPA=glycosylated PA=GPA)
The grey molecular region guides the self-assembly process into nanofibers, the blue molecular region contains the tri-sulfated monosaccharide responsible for protein binding actions.

[4] = test system: pSMAD1/5/8; test: Western blot of pSMAD1/5/8 in HGG cells treated with PAs with and without BMP4; format: cell-based, human; settings: PA 25 μM with BMP4 5 ng/ml, 24h and 72h; KNS42 and CHLA200 cells
Text: as §3, §4

[5] = Cy3-coupled PA, intracranial injection, compared with E2PA and MixPA
Text: (FIG. 6A) Intracranial distribution of glycosylated (GlncPA), E2 (E2PA) and glycosylated+E2 (MixPA) peptide amphiphiles coupled with Cy3.
Intracranial distribution of PAs administered directly into mouse brain, as well as the anti-tumor activity of direct intratumoral administration of PA-bound BMP4, was investigated.

[6] = test system: pSMAD1/5/8, SETD1A, MDR1; test: Western blot of SETD1A, SMAD1/5/8, MDR1 in KNS42 cells and LCH-13-pGBM primary cultured cells after BMP4; format: cell-based, human; settings: KNS42 and LCH-13-pGBM cells, BMP4 treatment
Text: as §1, §2

[7] = test system: H3K4me3; test: H3K4me3 levels in pediatric high-grade glioma cells in response to BMP4; format: cell-based, human; settings: BMP4 1 to 100 ng/ml
Text: as §1
This decreasing effect is reversed by Dorsomorphine, an inhibitor of pSMAD1/5/8 (FIG. 2C). In parallel, it was also tested and verified that SETD1A is associated with chemosensitivity in vitro in HGG cells (FIGS. 2D and E). […] Thus, it was hypothesized that BMP4 is altering gene expression through its effect on histone PTM. […]

Molecule: c1cc(-c2cnn3cc(-c4ccc(OCCN5CCCCC5)cc4)cnc23)ccn1 [Dorsomorphine, reference compound]
- effect on BMP4-induced decrease of cell viability with VCR or VBL ([1]; Dorsomorphine, inhibitor of pSMAD1/5/8, added): reversed

- BMP4 half-life [3]: extend BMP4 half-life
Molecule: CCCCCCCCCCCCCCCC(=O)N[C@H](C(=O)N[C@H](C(=O)N[C@@H](C)C(=O)N[C@@H](C)C(=O)N[C@@H](CCC(=O)O)C(=O)N[C@@H](CCC(=O)O)C(N)=O)C(C)C)C(C)C [E2-PA] (Palmitoyl-VVAAEE-NH2)
- HGG cell chemosensitivity [2]: increased HGG cell chemosensitivity
- BMP4 activity as phosphorylation of SMAD1/5/8 [4]: enhance BMP4 activity

Molecule: CCCCCCCCCCCCCCCC(=O)N[C@H](C(=O)N[C@H](C(=O)N[C@@H](C)C(=O)N[C@@H](C)C(=O)N[C@@H](CCC(=O)O)C(=O)N[C@@H](CCC(=O)O)C(=O)N[C@@H](CCCCNC(=O)COCCOCCNC(=O)CCc1cn(CCO[C@@H]2O[C@H](COS(=O)(=O)O)[C@@H](OS(=O)(=O)O)[C@H](OS(=O)(=O)O)[C@H]2NC(C)=O)nn1)C(N)=O)C(C)C)C(C)C [GlncPA] (Palmitoyl-VVAAEEK([AEEA-X1])-NH2)
- intracranial distribution [5]: greater distribution
- BMP4 half-life [3]: markedly prolong the half-life of BMP4

B1: Bone morphogenetic protein 4 (protein)
chain: SPKHHSQRARKKNKNCRRHSLYVDFSDVGWNDWIVAPPGYQAFYCHGDCPFPLADHLNSTNHAIVQTLVNSVNSSIPKACCVPTELSAISMLYLDEYDKVVLKNYQEMVVEGCGCR
- expression of SETD1A [6]: decreasing expression of SETD1A
- expression of multidrug resistant gene 1 (MDR1) [6]: decreasing expression
- phosphorylation of SMAD1/5/8 (pSMAD1/5/8) [6]: increases phosphorylation of SMAD1/5/8
- cell viability with vinblastine (VBL) ([1]; BMP4 for 48 hrs, then VBL 2 μg/ml, relative to VBL alone): markedly decreased cell viability
- cell viability with vincristine (VCR) ([1]; BMP4 for 48 hrs, then VCR 1 μg/ml, relative to VCR alone): markedly decreased cell viability
- H3K4me3 level [7]: reduces H3K4me3; also recorded: significant decrease in H3K4me3
